Reference: the supplement of paper PMC13380429

Columns and labels:
Settings in all cases: 72 h
HepG2 [1] = test: cell viability relative to DMSO; higher = less toxic
Caco-2 [2] = test: as above
Vero E6 [3] = test: as above
U2OS [4] = test: as above
Calu-3 [5] = test: as above
HepG2 [6] = test: drug sensitivity score (DSS) for viability; higher = more toxic; extreme values may be limits of the assay
Caco-2 [7] = test: as above
Vero E6 [8] = test: as above
U2OS [9] = test: as above
Calu-3 [10] = test: as above
HepG2 [11] = test: relative viability EC50 (midpoint between 100% and the lowest measured viability); higher = less toxic
Caco-2 [12] = test: as above
Vero E6 [13] = test: as above
U2OS [14] = test: as above
Calu-3 [15] = test: as above

Compound	cell viability (HepG2 [1]; 1 nM) [%]	cell viability (HepG2 [1]; 10 nM) [%]	cell viability (HepG2 [1]; 100 nM) [%]	cell viability (HepG2 [1]; 1000 nM) [%]	cell viability (HepG2 [1]; 10000 nM) [%]	cell viability (Caco-2 [2]; 1 nM) [%]	cell viability (Caco-2 [2]; 10 nM) [%]	cell viability (Caco-2 [2]; 100 nM) [%]	cell viability (Caco-2 [2]; 1000 nM) [%]	cell viability (Caco-2 [2]; 10000 nM) [%]	cell viability (Vero E6 [3]; 1 nM) [%]	cell viability (Vero E6 [3]; 10 nM) [%]	cell viability (Vero E6 [3]; 100 nM) [%]	cell viability (Vero E6 [3]; 1000 nM) [%]	cell viability (Vero E6 [3]; 10000 nM) [%]	cell viability (U2OS [4]; 1 nM) [%]	cell viability (U2OS [4]; 10 nM) [%]	cell viability (U2OS [4]; 100 nM) [%]	cell viability (U2OS [4]; 1000 nM) [%]	cell viability (U2OS [4]; 10000 nM) [%]	cell viability (Calu-3 [5]; 1 nM) [%]	cell viability (Calu-3 [5]; 10 nM) [%]	cell viability (Calu-3 [5]; 100 nM) [%]	cell viability (Calu-3 [5]; 1000 nM) [%]	cell viability (Calu-3 [5]; 10000 nM) [%]	drug sensitivity score (HepG2 [6])	drug sensitivity score (Caco-2 [7])	drug sensitivity score (Vero E6 [8])	drug sensitivity score (U2OS [9])	drug sensitivity score (Calu-3 [10])	relative viability EC50 (HepG2 [11]) [µM]	relative viability EC50 (Caco-2 [12]) [µM]	relative viability EC50 (Vero E6 [13]) [µM]	relative viability EC50 (U2OS [14]) [µM]	relative viability EC50 (Calu-3 [15]) [µM]
CC(=O)Nc1ccc(S(=O)(=O)Nc2ccc([N+](=O)[O-])cc2)cc1 [sulfanitran]	104	94.5	105	95	109	99	96.6	97.9	92.9	99.1	101	94.5	97	97.1	104	97.6	106	98.7	105	102	96.5	105	103	89	98.9	0	0	0	0	0	> 10	> 10	> 10	> 10	> 10
O[C@H]1[C@H]2[C@H](O)CCCN2C[C@H]1O [swainsonine]	110	96.4	90.9	88.9	94.2	79	95.1	86.8	81.5	81.7	112	97	97.5	83.7	88.1	95.8	103	98.5	105	92.3	97.5	104	91.1	88.7	87.1	0.5	0	2	0	1.3	> 10	> 10	> 10	> 10	> 10
COc1cc2c(cc1OC)CN(CCc1ccc(NC(=O)c3cc(OC)c(OC)cc3NC(=O)c3cnc4ccccc4c3)cc1)CC2 [tariquidar]	102	90.9	108	93.5	105	89.2	94.2	99.8	95.3	108	105	94.5	96.8	96.4	107	94.9	100	97.2	103	103	93.5	94.6	84	101	103	0	0	0	0	0	> 10	> 10	> 10	> 10	> 10
CC(C)(C)c1ccc(C(O)CCCN2CCC(C(O)(c3ccccc3)c3ccccc3)CC2)cc1 (stereo not given) [terfenadine]	108	117	103	96.9	99.8	77.3	100	76.3	101	80.2	107	97.3	109	101	100	98.1	101	96.5	99.7	97.8	97.6	115	97.3	104	106	0	2.4	0	0	0	> 10	> 10	> 10	> 10	> 10
O=C1CCC(N2C(=O)c3ccccc3C2=O)C(=O)N1 (stereo not given) [thalidomide]	102	99.8	89.4	99.1	97.8	89.6	91.9	90.9	94.7	94.9	103	102	93.9	97.3	96.1	101	95.4	100	95	98.6	89.8	92.1	92.2	93.6	97.9	0	0	0	0	0	> 10	> 10	> 10	> 10	> 10
Clc1ccccc1CN1CCc2sccc2C1 [ticlopidine]	97.5	93	107	106	94.9	91.9	102	93.5	93.4	99.8	89	97.9	98	95.6	105	98.9	91.5	97.2	102	108	101	98.3	99.6	91.7	101	0	0	0	0	0	> 10	> 10	> 10	> 10	> 10
NC1CCN(c2nc3c(cc2F)c(=O)c(C(=O)O)cn3-c2ccc(F)cc2F)C1 (stereo not given) [tosufloxacin]	88.1	87.6	95.9	96.3	78.6	96	99.9	111	99.4	81.7	101	101	108	101	99.7	97.3	104	98.6	102	95	95.1	103	101	103	124	0	0.5	0	0	0	> 10	> 10	> 10	> 10	> 10
N[C@@H](Cc1c[nH]c2ccccc12)C(=O)O [tryptophan]	88.3	95.1	103	88.9	100	105	96.6	85.7	110	97.5	99.7	108	94.4	91.3	99.8	97.2	101	101	99.1	98.1	106	97.1	107	107	103	0	0	0	0	0	> 10	> 10	> 10	> 10	> 10
CC(C)(C)c1cc(C=C(C#N)C#N)cc(C(C)(C)C)c1O [tyrphostin-A9]	104	101	98.7	74.3	8.9	96.5	98.3	95.8	70.1	20.5	100	106	97.8	97.2	17.5	106	97.9	100	90.6	22.4	97.4	96.3	99	92.8	44.1	8.9	8.1	5	5.9	4.2	1.45	1.29	2.91	2.18	2.12
CCCCC(=O)OCC(=O)[C@]1(O)Cc2c(O)c3c(c(O)c2[C@@H](O[C@H]2C[C@H](NC(=O)C(F)(F)F)[C@H](O)[C@H](C)O2)C1)C(=O)c1c(OC)cccc1C3=O [valrubicin]	95.7	101	77.9	33.6	0.6	95.9	96.8	92.5	72.3	23.3	98.6	102	107	92.3	29.2	105	96.7	103	70.3	6.1	90.7	95.4	89.7	60.9	26.7	15.2	7.5	5.2	9.5	9	0.43	1.36	2.28	1.36	0.769
CCCCC(=O)N(Cc1ccc(-c2ccccc2-c2nnn[nH]2)cc1)[C@H](C(=O)O)C(C)C [valsartan]	107	101	93.4	97.3	103	92	94.3	88.6	102	96	101	99.8	98.1	100	99.9	101	98.8	96.9	97.2	101	103	108	95.6	102	90.9	0	0	0	0	0	> 10	> 10	> 10	> 10	> 10
COc1ccc(N(C)c2nc(C)nc3ccccc23)cc1 [verubulin]	108	52.4	34.3	36.3	41.4	103	76.2	40.5	38.3	34.6	93	32.6	21.4	23.9	27.9	102	72.6	17.3	18	18.3	94.9	77.2	46.6	42.3	40.3	26.2	22.4	33.5	29.6	20.2	0.0069	0.0156	0.0037	0.0133	0.0151
OCC(CO)N[C@H]1C[C@](O)(CO)[C@@H](O)[C@H](O)[C@H]1O [voglibose]	98.2	108	102	100	111	94.4	102	93.7	98	106	97	95.1	94.3	93.8	104	103	100	100	98.2	97.5	97.8	106	98.4	101	108	0	0	0	0	0	> 10	> 10	> 10	> 10	> 10
COc1cccc([C@H](O)C2CCN(CCc3ccc(F)cc3)CC2)c1OC [volinanserin]	99.9	99.9	95.8	101	91.3	101	97.3	101	90.8	88.9	102	99.9	98.9	101	96.1	103	96.2	99.7	98.6	98.5	90.9	104	99.9	101	95.1	0	0.2	0	0	0	> 10	> 10	> 10	> 10	> 10
